Test [1] concerns muscarinic cholinergic receptor. The experiment in a line: pharmacological studies, muscarinic receptor activity.
Test [2] concerns the target T1, 5-HT1C receptor (Homo sapiens, UniProt P28335).
T1 sequence (P28335 33-458): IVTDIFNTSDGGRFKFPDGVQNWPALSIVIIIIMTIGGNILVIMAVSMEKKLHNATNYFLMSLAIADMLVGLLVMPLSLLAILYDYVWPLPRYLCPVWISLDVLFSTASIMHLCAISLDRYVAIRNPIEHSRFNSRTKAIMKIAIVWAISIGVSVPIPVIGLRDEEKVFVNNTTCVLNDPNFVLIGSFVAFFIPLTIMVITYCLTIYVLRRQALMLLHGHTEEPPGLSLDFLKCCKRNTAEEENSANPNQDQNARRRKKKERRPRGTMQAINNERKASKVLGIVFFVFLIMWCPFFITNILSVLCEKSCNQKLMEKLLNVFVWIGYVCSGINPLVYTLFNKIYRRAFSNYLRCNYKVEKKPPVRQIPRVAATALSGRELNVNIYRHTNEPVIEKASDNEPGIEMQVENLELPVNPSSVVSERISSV
The experiment in a line: pharmacological studies, 5-HT1C receptor activity.

Test [3] can be described thus: double-blind multicenter clinical trial, olanzapine versus placebo. The class given is in vivo. Particulars: patients randomized to olanzapine or placebo. The source says:
A double-blind multicenter clinical trial was designed to assess the safety and efficacy of olanzapine. Patients were randomized to olanzapine or placebo.

We go through 1 compound from patent EP0946179B1 (ELI LILLY AND COMPANY, priority 1996, dated 1997).

With `Cc1cc2c(s1)Nc1ccccc1N=C2N1CCN(C)CC1` [olanzapine, 2-methyl-4-(4-methyl-1-piperazinyl)-10H-thieno[2,3-b][1,5] benzodiazepine], the “muscarinic cholinergic receptor activity” value in test [1] was “has muscarinic cholinergic receptor activity”. Also, the “activity at the 5-HT1C receptor” value in test [2] is reported as “active”. In test [3], the “usefulness for the treatment of autism” value is given as “can be useful for the treatment of autism” and the “usefulness for the treatment of mental retardation” value was “can be useful for the treatment of mental retardation”.
